Assay results: patent publication US11578079B2, “SUMO inhibitor compounds and uses thereof” (CITY OF HOPE, priority 2018, dated 2023)

Target: T1, SUMO (Homo sapiens, UniProt Q9UBT2)
T1 sequence (Q9UBT2 1-640): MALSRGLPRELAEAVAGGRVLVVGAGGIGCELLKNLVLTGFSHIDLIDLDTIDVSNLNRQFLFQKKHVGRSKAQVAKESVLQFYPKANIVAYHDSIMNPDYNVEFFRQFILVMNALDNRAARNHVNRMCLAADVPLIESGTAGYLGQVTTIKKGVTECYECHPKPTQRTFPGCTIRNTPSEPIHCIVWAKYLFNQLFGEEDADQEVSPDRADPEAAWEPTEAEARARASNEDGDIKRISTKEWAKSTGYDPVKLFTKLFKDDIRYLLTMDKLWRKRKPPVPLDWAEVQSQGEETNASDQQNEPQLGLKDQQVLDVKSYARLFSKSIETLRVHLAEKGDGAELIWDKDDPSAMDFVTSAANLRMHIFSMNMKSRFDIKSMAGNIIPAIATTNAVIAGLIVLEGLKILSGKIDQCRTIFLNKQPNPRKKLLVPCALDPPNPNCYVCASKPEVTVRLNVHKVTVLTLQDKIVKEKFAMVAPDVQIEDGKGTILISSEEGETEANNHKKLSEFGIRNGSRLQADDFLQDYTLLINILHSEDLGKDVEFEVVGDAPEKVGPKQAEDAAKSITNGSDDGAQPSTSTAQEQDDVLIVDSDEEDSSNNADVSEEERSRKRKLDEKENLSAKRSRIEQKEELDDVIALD
T1 sequence (Q9UBE0 1-346 partner): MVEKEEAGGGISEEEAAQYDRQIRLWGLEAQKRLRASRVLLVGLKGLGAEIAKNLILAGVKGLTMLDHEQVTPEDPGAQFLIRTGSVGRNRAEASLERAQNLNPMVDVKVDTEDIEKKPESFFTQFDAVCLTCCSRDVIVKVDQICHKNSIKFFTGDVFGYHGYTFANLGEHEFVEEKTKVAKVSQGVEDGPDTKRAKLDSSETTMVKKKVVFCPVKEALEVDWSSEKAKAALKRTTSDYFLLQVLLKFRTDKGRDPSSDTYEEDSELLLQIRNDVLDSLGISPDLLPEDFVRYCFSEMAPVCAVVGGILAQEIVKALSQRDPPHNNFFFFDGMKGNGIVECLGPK
Assay: SUMO activity (Table I, biological activities)
Format: biochemical
Set-up: key: + (less active); ++ (active); +++ (most active)

SMILES | SUMO
NC(=O)C1=C(C(N)=O)C2(C(Cc3ccccc3)Nc3ccccc3)C=CC1O2 (stereo not drawn) [Compound 202] | +
COC(=O)C1=C(C(=O)OC)C2(C(Nc3ccccc3)c3ccc4cc(OC)ccc4c3)C=CC1O2 (stereo not drawn) [Compound 653] | ++
COC(=O)C1=C(C(=O)OC)C2(C(Cc3ccccc3)Oc3cccnc3)C=CC1O2 (stereo not drawn) [Compound 482] | +
CNC(=O)C1=C(C(=O)OC)C2(C(Cc3ccccc3)Nc3ccccc3)C=CC1(C)O2 (stereo not drawn) [Compound 293] | ++
COC(=O)C1=C(C(=O)Nc2ccncc2)C2C=CC1(C(Cc1ccccc1)Nc1cc(F)cc(F)c1)O2 (stereo not drawn) [Compound 206] | +
COC(=O)C1=C(C(=O)OC)C2(C(Nc3ccccc3)c3ccc4nc(Cl)ccc4c3)C=CC1O2 (stereo not drawn) [Compound 675] | ++
CCCCC(Nc1cc(F)cc(F)c1)C12C=CC(O1)C(C(=O)NCCN(C)C)=C2C(=O)OC (stereo not drawn) [Compound 397] | +
COC(=O)C1=C(C(=O)NCCNC(=O)OC(C)(C)C)C2C=CC1(C(Cc1ccccc1)Nc1ccc(F)cc1)O2 (stereo not drawn) [Compound 539] | ++
COC(=O)C1=CC2(C(Cc3ccccc3)N(C)c3ccccc3)C=CC1O2 (stereo not drawn) [Compound 284] | ++
COC(=O)C1=C(C(=O)OC)C2(C(Cc3ccccc3)N(C)c3ccccc3)C=CC1O2 (stereo not drawn) [Compound 236] | ++
COC(=O)C1=C(C(=O)OC)C2(C(Cc3ccccc3)Nc3ccccc3)CC(O)C1O2 (stereo not drawn) [Compound 302] | ++
COC(=O)C1=C(C(=O)Nc2ccc(OC)cc2)C2C=CC1(C(Cc1ccccc1)Nc1ccccc1)O2 (stereo not drawn) [Compound 194] | ++
COC(=O)C1=C(C(=O)OC)C2(C(CCCN3CCOCC3)Nc3ccccc3)C=CC1O2 (stereo not drawn) [Compound 193] | +
COC(=O)C1=C(C(=O)NC2CCN(C)CC2)C2CCC1(C(Cc1ccccc1)Nc1cc(F)cc(F)c1)O2 (stereo not drawn) [Compound 303] | ++
COC(=O)C1=C(C(=O)NCCN(C)C)C2CCC1(C(Cc1ccccc1Cl)Nc1ccccc1)O2 (stereo not drawn) [Compound 691] | ++
COC(=O)C1=C(C(=O)NC2CCN(C(=O)OC(C)(C)C)CC2)C2C=CC1(C(Cc1ccccc1)Nc1ccccc1)O2 (stereo not drawn) [Compound 198] | +
COC(=O)C1=C(C(=O)OC)C2(C(Nc3ccccc3)c3ccc4ccc(OC)cc4c3)C=CC1O2 (stereo not drawn) [Compound 654] | ++
CC(C)NC(=O)C1=C(C(=O)NC(C)C)C2(C(Cc3ccccc3)Nc3ccccc3)C=CC1O2 (stereo not drawn) [Compound 159] | +
COC(=O)C1=C(C(=O)Nc2ccn(C)n2)C2C=CC1(C(Cc1ccccc1)Nc1ccccc1)O2 (stereo not drawn) [Compound 197] | ++
CCNC(=O)C1=C(C(=O)NCC)C2(C(Cc3ccccc3Cl)Nc3ccccc3)C=CC1O2 (stereo not drawn) [Compound 662] | +
COC(=O)C1=C(C(=O)OC)C2(C(Cc3ccc(F)cc3)Nc3cc(F)cc(Cl)c3)C=CC1O2 (stereo not drawn) [Compound 451] | +++

SMILES | SUMO
COC(=O)C1=C(C(=O)Nc2ccc(N3CCN(C)CC3)cc2)C2C=CC1(C(Cc1ccccc1)Nc1ccccc1)O2 (stereo not drawn) [Compound 291] | ++
CCOc1cccc(NC(Cc2ccccc2)C23C=CC(O2)C(C(=O)O)=C3C(=O)OC)c1 (stereo not drawn) [Compound 246] | +
CCC12C=CC(C(Cc3ccccc3)Nc3ccccc3)(O1)C(C(=O)OC)=C2C(=O)OC (stereo not drawn) [Compound 629] | ++
CCOC(=O)C1=C(C(=O)OCC)C2(C(Cc3ccccc3)Nc3ccccc3)C=CC1O2 (stereo not drawn) [Compound 232] | +++
COC(=O)C1=C(C(=O)Nc2ccc(C)c(F)c2)C2C=CC1(C1OCCO1)O2 (stereo not drawn) [Compound 485] | +
COC(=O)C1=C(C(=O)OC)C2(C(Cc3ccccc3)N(C)c3c(F)cccc3F)C=CC1O2 (stereo not drawn) [Compound 237] | +
O=C(O)C1=C(C(=O)Nc2ccccc2)C2C=CC1(C(Cc1ccccc1)Nc1ccccc1)O2 (stereo not drawn) [Compound 174] | +
COC(=O)C1=C(C(=O)OC)C2(C(Cc3ccccc3)Oc3cccc(CO)c3)C=CC1O2 (stereo not drawn) [Compound 520] | ++
COC(=O)C1=C(C(=O)NCCCCCNC(=O)OCC2c3ccccc3-c3ccccc32)C2C=CC1(C(Cc1ccccc1)Nc1cc(F)cc(F)c1)O2 (stereo not drawn) [Compound 244] | +
CCCCC(Nc1cc(F)cc(F)c1)C12C=CC(O1)C(C(=O)NCCN(CC)CC)=C2C(=O)OC (stereo not drawn) [Compound 398] | +
COC(=O)C1=C(C(=O)OC)C2(C(Cc3ccc(C4CCOCC4)cc3)Nc3ccccc3)C=CC1O2 (stereo not drawn) [Compound 681] | ++
COC(=O)C1=C(C(=O)NNc2ccccc2)C2(C)C=CC1(C(Cc1ccccc1)Nc1ccccc1)O2 (stereo not drawn) [Compound 295] | ++
COC(=O)C1=C(C(=O)NCCN2CCOCC2)C2C=CC1(C(Cc1ccccc1)Nc1ccccc1)O2 (stereo not drawn) [Compound 222] | +++
C=CC(C)(C)C(Nc1ccccc1)C12C=CC(O1)C(C(=O)OC)=C2C(=O)OC (stereo not drawn) [Compound 188] | ++
COC(=O)C1=C(C(=O)OC)C2(C(Cc3ccccc3F)Nc3cc(F)cc(F)c3)C=CC1O2 (stereo not drawn) [Compound 454] | +++
COC(=O)C1=C(C(=O)Nc2ccc(Oc3ccccc3)cc2)C2C=CC1(C(Cc1ccccc1)Nc1ccccc1)O2 (stereo not drawn) [Compound 296] | ++
CCOC(=O)C1=C(C(=O)OCC)C2(C(Cc3ccccc3)Nc3c(F)cccc3F)C=CC1O2 (stereo not drawn) [Compound 230] | ++
COC(=O)C1=C(C(N)=O)C2C=CC1(C(Cc1ccccc1)Nc1cc(F)cc(F)c1)O2 (stereo not drawn) [Compound 207] | +
COC(=O)C1=C(C(=O)OC)C2(C(Cc3ccccc3)Nc3ccccc3)C=CC1(C)O2 (stereo not drawn) [Compound 259] | ++
COC(=O)C1=C(C(=O)Nc2ccc(OC(F)(F)F)cc2)C2C=CC1(C(Cc1ccccc1)Nc1ccccc1)O2 (stereo not drawn) [Compound 196] | +
Cc1ccc(S(=O)(=O)C2=CC3(C(Cc4ccccc4)Nc4ccccc4)C=CC2(C)O3)cc1 (stereo not drawn) [Compound 532] | +

Next, values leading:

SUMO | SMILES
++ | COC(=O)C1=C(C(=O)OC)C2(C(Cc3ccc(CC(C)C)cc3)Nc3ccccc3)C=CC1O2 (stereo not drawn) [Compound 656]
+++ | CCCCC(Nc1ccccc1)C12C=CC(O1)C(C(=O)OC)=C2C(=O)OC (stereo not drawn) [Compound 210]
+++ | COC(=O)C1=C(C(=O)OC)C2(C(Nc3ccccc3)c3ccc4ccccc4c3)C=CC1O2 (stereo not drawn) [Compound 632]
+++ | COC(=O)C1=C(C(=O)OC)C2(C(Cc3cccc(OC)c3)Nc3ccccc3)C=CC1O2 (stereo not drawn) [Compound 636]
++ | COC(=O)C1=C(C(=O)OC)C2(C(Cc3ccc(OC(C)C)cc3)Nc3ccccc3)C=CC1O2 (stereo not drawn) [Compound 650]
+++ | COC(=O)C1=C(C(=O)OC)C2(C(Cc3ccccc3Cl)Nc3ccccc3)C=CC1O2 (stereo not drawn) [Compound 640]
++ | COC(=O)C1=C(C(=O)OC)C2(C(Cc3ccc(OC(F)(F)F)cc3)Nc3ccccc3)C=CC1O2 (stereo not drawn) [Compound 647]
++ | CCc1ccc(CC(Nc2ccccc2)C23C=CC(O2)C(C(=O)OC)=C3C(=O)OC)cc1 (stereo not drawn) [Compound 655]
+++ | COC(=O)C1=C(C(=O)OC)C2(C(Cc3ccc4ccccc4c3)Nc3ccccc3)C=CC1O2 (stereo not drawn) [Compound 630]
++ | COC(=O)C1=C(C(=O)OC)C2(C(Cc3ccccc3)Oc3ccccc3)C=CC1O2 (stereo not drawn) [Compound 271]
++ | COC(=O)C1=C(C(=O)OC)C2(C(Cc3ccccc3)Nc3ccc(F)cc3)C=CC1O2 (stereo not drawn) [Compound 273]
++ | COC(=O)C1=C(C(=O)OC)C2(C(Cc3ccc(C(C)C)cc3)Nc3ccccc3)C=CC1O2 (stereo not drawn) [Compound 670]
++ | COC(=O)C1=C(C(=O)OC)C2(C(Cc3ccccc3C)Nc3ccccc3)C=CC1O2 (stereo not drawn) [Compound 648]
++ | COC(=O)C1=C(C(=O)OC)C2(C(Cc3cccc4ccccc34)Nc3ccccc3)C=CC1O2 (stereo not drawn) [Compound 635]
++ | COC(=O)C1=C(C(=O)OC)C2(C(Cc3ccccc3)Nc3ccccc3F)C=CC1O2 (stereo not drawn) [Compound 270]
++ | COC(=O)C1=C(C(=O)OC)C2(C(Cc3ccc(F)cc3F)Nc3ccccc3)C=CC1O2 (stereo not drawn) [Compound 639]
++ | COC(=O)C1=C(C(=O)OC)C2(C(Cc3ccccc3Cl)Nc3cccc(OCc4ccccc4)c3)C=CC1O2 (stereo not drawn) [Compound 674]
+++ | COC(=O)C1=C(C(=O)OC)C2(C(Cc3ccc(OC)cc3)Nc3ccccc3)C=CC1O2 (stereo not drawn) [Compound 633]
++ | CNc1ccc(CC(Nc2ccccc2)C23C=CC(O2)C(C(=O)OC)=C3C(=O)OC)cc1 (stereo not drawn) [Compound 685]
++ | COC(=O)C1=C(C(=O)OC)C2(C(Cc3cccnc3Cl)Nc3ccccc3)C=CC1O2 (stereo not drawn) [Compound 668]
++ | CCOc1cccc(NC(Cc2ccccc2)C23C=CC(O2)C(C(=O)OC)=C3C(=O)OC)c1 (stereo not drawn) [Compound 669]
